≈ marks a conversion by molar mass, not a printed value. Read-outs that look alike come from different tables or passages of the source.
Experiments:
Experiment in all cases: antimicrobial activity, serial dilution method on agar plate
Assay type in all cases: cell-based
[1] = system: Salmonella typhi 0-901 (NCTC 8393); settings: Salmonella enterica
Description: (§1) The antimicrobial activity of the following test compounds on various test organisms listed below was determined by the serial dilution method on agar plate (Heart Infusion agar produced by Difco Co.) (see CHEMOTHERAPY 22, pp. 1126-1128 (1974)), and the minimum inhibitory concentrations (mcg/ml) obtained are shown in Table 1 below.
(§2) A sample of each test organism was prepared so that the population of the organism was 1×10^8 cells/ml (O.D. 660 mμ=0.07 to 0.16) and 1×10^6 cells/ml (which was obtained by diluting the above 1×10^8 cells/ml preparation).

[2] = system: Staphylococcus aureus FDA 209 P; settings: read-out: Minimum Inhibitory Concentration
Description: as §1, §2

[3] = system: Pseudomonas aeruginosa ATCC 10145
Description: as §1, §2

Proteus rettgeri NIH 96 = settings: Providencia rettgeri, read-out: Minimum Inhibitory Concentration
Description: as §1, §2

[4] = system: Serattia marcescens IFO 12648; settings: read-out: Minimum Inhibitory Concentration
Description: as §1, §2

Shigella Sonnei EW 33 = settings: read-out: Minimum Inhibitory Concentration
Description: as §1, §2

Escherichia Coli NIHJ = settings: read-out: Minimum Inhibitory Concentration
Description: as §1, §2

[5] = system: Pseudomonas aeruginosa E-2; settings: read-out: Minimum Inhibitory Concentration
Description: as §1, §2

[6] = system: Pseudomonas aeruginosa NCTC 10490; settings: read-out: Minimum Inhibitory Concentration
Description: as §1, §2

Klebsiella pneumoniae = system: Klebsiella pneumoniae
Description: as §1, §2

[7] = system: Streptococcus pyogenes IID S-23; settings: read-out: Minimum Inhibitory Concentration
Description: as §1, §2

[8] = system: Escherichia Coli NIHJ JC-2 (IFO 12734); settings: Escherichia coli, read-out: Minimum Inhibitory Concentration
Description: as §1, §2

[9] = read-out: Minimum Inhibitory Concentration, inoculum 1 × 10^8 cells/ml
[10] = FDA209, inoculum 1 × 10^8 cells/ml
[11] = ATCC10145, inoculum 1 × 10^8 cells/ml, read-out: Minimum Inhibitory Concentration
[12] = NIH96, inoculum 1 × 10^8 cells/ml
[13] = NCTC10490, inoculum 1 × 10^8 cells/ml
[14] = inoculum 1 × 10^8 cells/ml, read-out: Minimum Inhibitory Concentration
[15] = read-out: Minimum Inhibitory Concentration, inoculum 1 × 10^6 cells/ml
[16] = FDA209, inoculum 1 × 10^6 cells/ml
[17] = ATCC10145, inoculum 1 × 10^6 cells/ml, read-out: Minimum Inhibitory Concentration
[18] = NIH96, inoculum 1 × 10^6 cells/ml
[19] = IIDS23, inoculum 1 × 10^6 cells/ml
[20] = IIDS23, inoculum 1 × 10^8 cells/ml
[21] = NCTC10490, inoculum 1 × 10^6 cells/ml
[22] = inoculum 1 × 10^6 cells/ml, read-out: Minimum Inhibitory Concentration

Row | Compound | MIC [1, 9] [µg/mL] | MIC [2, 10] [µg/mL] | MIC [3, 11] [µg/mL] | MIC (Proteus rettgeri NIH 96; [12]) [µg/mL] | MIC ([4]; inoculum 1 × 10^8 cells/ml) [µg/mL] | MIC (Shigella Sonnei EW 33; inoculum 1 × 10^8 cells/ml) [µg/mL] | MIC (Escherichia Coli NIHJ; inoculum 1 × 10^8 cells/ml) [µg/mL] | MIC ([5]; E2, inoculum 1 × 10^8 cells/ml) [µg/mL] | MIC [6, 13] [µg/mL] | MIC (Klebsiella pneumoniae; [14]) [µg/mL] | MIC [1, 15] [µg/mL] | MIC [2, 16] [µg/mL] | MIC [3, 17] [µg/mL] | MIC (Proteus rettgeri NIH 96; [18]) [µg/mL] | MIC ([4]; inoculum 1 × 10^6 cells/ml) [µg/mL] | MIC [7, 19] [µg/mL] | MIC [7, 20] [µg/mL] | MIC (Shigella Sonnei EW 33; inoculum 1 × 10^6 cells/ml) [µg/mL] | MIC ([5]; E2, inoculum 1 × 10^6 cells/ml) [µg/mL] | MIC ([8]; inoculum 1 × 10^8 cells/ml) [µg/mL] | other results
1 | CC1(C)SC2C(NC(=O)C(NC(=O)c3cn4c5c(c(N6CCNCC6)ccc5c3=O)CCC4)c3ccccc3)C(=O)N2C1C(=O)O (centres unmarked) [I] | 0.2 (≈ 0.31 µM) | 0.1 (≈ 0.155 µM) | 25 (≈ 38.8 µM) | 0.4 (≈ 0.62 µM) | 12.5 (≈ 19.4 µM) | 3.1 (≈ 4.81 µM) | 1.6 (≈ 2.48 µM) | 25 (≈ 38.8 µM) | 6.3 (≈ 9.77 µM) | 0.8 (≈ 1.24 µM) | – | – | – | – | – | – | – | – | – | – | –
2 | CC1Cc2c(Cl)ccc3c(=O)c(C(=O)O)cn1c23 (centres unmarked) [G] | 0.8 (≈ 3.03 µM) | 3.1 (≈ 11.8 µM) | 50 (≈ 190 µM) | 0.4 (≈ 1.52 µM) | 3.1 (≈ 11.8 µM) | 1.6 (≈ 6.07 µM) | 0.8 (≈ 3.03 µM) | 100 (≈ 379 µM) | 25 (≈ 94.8 µM) | 3.1 (≈ 11.8 µM) | 0.8 (≈ 3.03 µM) | 3.1 (≈ 11.8 µM) | 25 (≈ 94.8 µM) | 0.2 (≈ 0.758 µM) | 1.6 (≈ 6.07 µM) | > 100 | > 100 | 1.6 (≈ 6.07 µM) | 50 (≈ 190 µM) | – | MIC (Escherichia Coli NIHJ; inoculum 1 × 10^6 cells/ml): 0.4 µg/mL (≈ 1.52 µM); MIC [6, 21]: 12.5 µg/mL (≈ 47.4 µM); MIC (Klebsiella pneumoniae; [22]): 1.6 µg/mL (≈ 6.07 µM)
3 | CC(=O)N1CCN(c2ccc3c(=O)c(C(=O)NC(C(=O)NC4C(=O)N5C4SC(C)(C)C5C(=O)O)c4ccccc4)cn4c3c2CCC4)CC1 (centres unmarked) [H] | 6.3 (≈ 9.17 µM) | 1.6 (≈ 2.33 µM) | – | 25 (≈ 36.4 µM) | 50 (≈ 72.8 µM) | 12.5 (≈ 18.2 µM) | 6.3 (≈ 9.17 µM) | 25 (≈ 36.4 µM) | 3.1 (≈ 4.51 µM) | – | – | – | – | – | – | – | – | – | – | – | MIC ([3]; ATCC10145, read-out: Minimum Inhibitory Concentration, inoculum 1 × 10^8 cells/ml): 12.5 µg/mL (≈ 18.2 µM); MIC (Klebsiella pneumoniae; [9]): 12.5 µg/mL (≈ 18.2 µM)
4 | CC1(C)SC2C(NC(=O)C(NC(=O)c3cn4c5c(c(N6CCNCC6)cc(Cl)c5c3=O)CCC4)c3ccccc3)C(=O)N2C1C(=O)O (centres unmarked) [Compound K, 6-{2-[10-Chloro-8-(1-piperazinyl)-6,7-dihydro-1-oxo-1H,5H--benzo[ij]quinolizine-2-carboxamido]-2-phenylacetamido}-3,3-dimethyl-7-oxo-4-thia-1-azabicyclo[3,2,0]heptane-2-carboxylic acid, reference compound] | 3.1 (≈ 4.56 µM) | 0.8 (≈ 1.18 µM) | 12.5 (≈ 18.4 µM) | 12.5 (≈ 18.4 µM) | 12.5 (≈ 18.4 µM) | 3.1 (≈ 4.56 µM) | 6.3 (≈ 9.28 µM) | 25 (≈ 36.8 µM) | 3.1 (≈ 4.56 µM) | 6.3 (≈ 9.28 µM) | – | – | – | – | – | – | – | – | – | – | –
5 | CC1Cc2c(N3CCN(C)CC3)c(F)cc3c(=O)c(C(=O)O)cn1c23 (centres unmarked) [a] | ≤ 0.05 | 0.8 (≈ 2.32 µM) | 1.6 (≈ 4.63 µM) | 0.2 (≈ 0.579 µM) | 0.2 (≈ 0.579 µM) | 0.1 (≈ 0.29 µM) | – | 1.6 (≈ 4.63 µM) | 1.6 (≈ 4.63 µM) | 0.2 (≈ 0.579 µM) | ≤ 0.05 | 0.4 (≈ 1.16 µM) | 1.6 (≈ 4.63 µM) | 0.1 (≈ 0.29 µM) | 0.2 (≈ 0.579 µM) | 3.1 (≈ 8.98 µM) | 6.3 (≈ 18.2 µM) | 0.1 (≈ 0.29 µM) | 1.6 (≈ 4.63 µM) | 0.1 (≈ 0.29 µM) | MIC ([8]; inoculum 1 × 10^6 cells/ml): 0.1 µg/mL (≈ 0.29 µM); MIC [6, 21]: 1.6 µg/mL (≈ 4.63 µM); MIC (Klebsiella pneumoniae; [22]): 0.2 µg/mL (≈ 0.579 µM)
6 | COc1ccc(CN2CCN(c3c(Cl)cc4c(=O)c(C(=O)O)cn5c4c3CCC5C)CC2)cc1 (centres unmarked) [g] | 0.78 (≈ 1.62 µM) | 0.78 (≈ 1.62 µM) | 6.25 (≈ 13 µM) | 0.1 (≈ 0.207 µM) | 0.39 (≈ 0.809 µM) | 1.56 (≈ 3.24 µM) | – | 12.5 (≈ 25.9 µM) | 12.5 (≈ 25.9 µM) | 0.78 (≈ 1.62 µM) | – | – | – | – | – | – | 3.13 (≈ 6.49 µM) | – | – | 0.78 (≈ 1.62 µM) | –
7 | CC1Cc2c(N3CCN(C)CC3)c(Cl)cc3c(=O)c(C(=O)O)cn1c23 (centres unmarked) [Compound Z, 8-Chloro-9-(4-methyl-1-piperazinyl)-2-methyl-6-oxo-1,2-dihydro-6H--pyrrolo[3,2,1-ij]-quinoline-5-carboxylic acid] | 0.1 (≈ 0.276 µM) | 0.8 (≈ 2.21 µM) | 3.1 (≈ 8.57 µM) | 0.4 (≈ 1.11 µM) | 0.4 (≈ 1.11 µM) | 0.2 (≈ 0.553 µM) | – | 6.3 (≈ 17.4 µM) | 3.1 (≈ 8.57 µM) | 0.2 (≈ 0.553 µM) | 0.1 (≈ 0.276 µM) | 0.4 (≈ 1.11 µM) | 3.1 (≈ 8.57 µM) | 0.2 (≈ 0.553 µM) | 0.4 (≈ 1.11 µM) | 6.3 (≈ 17.4 µM) | 12.5 (≈ 34.5 µM) | 0.2 (≈ 0.553 µM) | 3.1 (≈ 8.57 µM) | 0.2 (≈ 0.553 µM) | MIC ([8]; inoculum 1 × 10^6 cells/ml): 0.2 µg/mL (≈ 0.553 µM); MIC [6, 21]: 3.1 µg/mL (≈ 8.57 µM); MIC (Klebsiella pneumoniae; [22]): 0.2 µg/mL (≈ 0.553 µM)
8 | CC1(C)SC2C(NC(=O)C(NC(=O)c3cn4c5c(c(N6CCN(S(C)(=O)=O)CC6)ccc5c3=O)CCC4)c3ccccc3)C(=O)N2C1C(=O)O (centres unmarked) [Compound J, 6-{2-[8-(4-Methanesulfonyl-1-piperazinyl)-6,7-dihydro-1-oxo-1H,5H--benzo[ij]quinolizine-2-carboxamido]-2-phenylacetamido}-3,3-dimethyl-7-oxo-4-thia-1-azabicyclo[3,2,0]-heptane-2-carboxylic acid, reference compound] | 3.1 (≈ 4.29 µM) | 0.8 (≈ 1.11 µM) | 12.5 (≈ 17.3 µM) | 12.5 (≈ 17.3 µM) | 50 (≈ 69.2 µM) | 6.3 (≈ 8.72 µM) | 3.1 (≈ 4.29 µM) | 25 (≈ 34.6 µM) | 3.1 (≈ 4.29 µM) | 6.3 (≈ 8.72 µM) | – | – | – | – | – | – | – | – | – | – | –
9 | CC1CCc2c(N3CCN(C(=O)C(F)(F)C(F)(F)F)CC3)c(Cl)cc3c(=O)c(C(=O)O)cn1c23 (centres unmarked) [d] | 0.1 (≈ 0.197 µM) | 1.56 (≈ 3.07 µM) | 1.56 (≈ 3.07 µM) | 0.2 (≈ 0.394 µM) | 0.2 (≈ 0.394 µM) | 0.78 (≈ 1.54 µM) | – | 6.25 (≈ 12.3 µM) | 3.13 (≈ 6.16 µM) | 0.39 (≈ 0.768 µM) | – | – | – | – | – | – | 12.5 (≈ 24.6 µM) | – | – | 0.39 (≈ 0.768 µM) | –
